In patent US8211662B2, “Nitroreductase enzymatic substrates” (Biomerieux, priority 2007, dated 2012):

Assays:
[1] = system: Bacillus subtilis NCTC 9372; experiment: Nitroreductase detection on Columbia agar, colonies read under UV; assay type: cell-based; design: key: − = no fluorescence detected; +/− = weak fluorescence; + = medium fluorescence; ++ = strong fluorescence; conditions: Table 3; 100 mg/l in Columbia agar, 24 h 37° C., UV 360-365 nm
Protocol: (§1) A mass of 40 mg of each substrate was dissolved in 4 ml of dimethylformamide (DMF). This solution was entirely taken up in 400 ml of Columbia agar autoclaved beforehand and kept molten at 50° C. The final concentration for each substrate was 100 mg/l.
(§2) Each of the media was distributed into Petri dishes 90 mm in diameter, in a proportion of 20 ml per dish.
(§3) 18 microorganism strains derived from collections and belonging to various species of bacteria and of yeasts were inoculated onto these media by semi-quantitative isolation of 10 μl of a suspension at 0.5 McFarland diluted to 1/20. The media were incubated for 24 hours at 37° C., then the colonies formed were examined visually under UV illumination at 360-365 nm.

[2] = system: Burkholderia cepacia 1222; experiment: as above; assay type: cell-based; design: key: − = no fluorescence detected; +/− = weak fluorescence; + = medium fluorescence; ++ = strong fluorescence; conditions: Table 3; 100 mg/l in Columbia agar, 24 h 37° C., UV 360-365 nm
Protocol: as §1, §2, §3

[3] = system: Candida albicans ATCC 90028; experiment: as above; assay type: cell-based; design: key: − = no fluorescence detected; +/− = weak fluorescence; + = medium fluorescence; ++ = strong fluorescence; conditions: Table 3; 100 mg/l in Columbia agar, 24 h 37° C., UV 360-365 nm
Protocol: as §1, §2, §3

[4] = system: Citrobacter freundii 46262 (wild); experiment: as above; assay type: cell-based; design: key: − = no fluorescence detected; +/− = weak fluorescence; + = medium fluorescence; ++ = strong fluorescence; conditions: Table 3; 100 mg/l in Columbia agar, 24 h 37° C., UV 360-365 nm
Protocol: as §1, §2, §3

[5] = system: Enterobacter cloacae NCTC 11936; experiment: as above; assay type: cell-based; design: key: − = no fluorescence detected; +/− = weak fluorescence; + = medium fluorescence; ++ = strong fluorescence; conditions: Table 3; 100 mg/l in Columbia agar, 24 h 37° C., UV 360-365 nm
Protocol: as §1, §2, §3

[6] = system: Enterococcus faecalis NCTC 775; experiment: as above; assay type: cell-based; design: key: − = no fluorescence detected; +/− = weak fluorescence; + = medium fluorescence; ++ = strong fluorescence; conditions: Table 3; 100 mg/l in Columbia agar, 24 h 37° C., UV 360-365 nm
Protocol: as §1, §2, §3

[7] = system: Enterococcus faecium NCTC 7171; experiment: as above; assay type: cell-based; design: key: − = no fluorescence detected; +/− = weak fluorescence; + = medium fluorescence; ++ = strong fluorescence; conditions: Table 3; 100 mg/l in Columbia agar, 24 h 37° C., UV 360-365 nm
Protocol: as §1, §2, §3

[8] = system: Escherichia coli NCTC 10418; experiment: as above; assay type: cell-based; design: key: − = no fluorescence detected; +/− = weak fluorescence; + = medium fluorescence; ++ = strong fluorescence; conditions: Table 3; 100 mg/l in Columbia agar, 24 h 37° C., UV 360-365 nm
Protocol: as §1, §2, §3

[9] = system: Listeria monocytogenes NCTC 11994; experiment: as above; assay type: cell-based; design: key: − = no fluorescence detected; +/− = weak fluorescence; + = medium fluorescence; ++ = strong fluorescence; conditions: Table 3; 100 mg/l in Columbia agar, 24 h 37° C., UV 360-365 nm
Protocol: as §1, §2, §3

[10] = system: Providencia rettgeri NCTC 7475; experiment: as above; assay type: cell-based; design: key: − = no fluorescence detected; +/− = weak fluorescence; + = medium fluorescence; ++ = strong fluorescence; conditions: Table 3; 100 mg/l in Columbia agar, 24 h 37° C., UV 360-365 nm
Protocol: as §1, §2, §3

[11] = system: Pseudomonas aeruginosa NCTC 10662; experiment: as above; assay type: cell-based; design: key: − = no fluorescence detected; +/− = weak fluorescence; + = medium fluorescence; ++ = strong fluorescence; conditions: Table 3; 100 mg/l in Columbia agar, 24 h 37° C., UV 360-365 nm
Protocol: as §1, §2, §3

[12] = system: Serratia marcescens NCTC 10211; experiment: as above; assay type: cell-based; design: key: − = no fluorescence detected; +/− = weak fluorescence; + = medium fluorescence; ++ = strong fluorescence; conditions: Table 3; 100 mg/l in Columbia agar, 24 h 37° C., UV 360-365 nm
Protocol: as §1, §2, §3

[13] = system: Staphylococcus aureus NCTC 6571; experiment: as above; assay type: cell-based; design: key: − = no fluorescence detected; +/− = weak fluorescence; + = medium fluorescence; ++ = strong fluorescence; conditions: Table 3; 100 mg/l in Columbia agar, 24 h 37° C., UV 360-365 nm
Protocol: as §1, §2, §3

[14] = system: Staphylococcus epidermidis NCTC 11047; experiment: as above; assay type: cell-based; design: key: − = no fluorescence detected; +/− = weak fluorescence; + = medium fluorescence; ++ = strong fluorescence; conditions: Table 3; 100 mg/l in Columbia agar, 24 h 37° C., UV 360-365 nm
Protocol: as §1, §2, §3

[15] = system: Streptococcus pyogenes NCTC 8306; experiment: as above; assay type: cell-based; design: key: − = no fluorescence detected; +/− = weak fluorescence; + = medium fluorescence; ++ = strong fluorescence; conditions: Table 3; 100 mg/l in Columbia agar, 24 h 37° C., UV 360-365 nm
Protocol: as §1, §2, §3

[16] = system: Yersinia enterocolitica NCTC 11176; experiment: as above; assay type: cell-based; design: key: − = no fluorescence detected; +/− = weak fluorescence; + = medium fluorescence; ++ = strong fluorescence; conditions: Table 3; 100 mg/l in Columbia agar, 24 h 37° C., UV 360-365 nm
Protocol: as §1, §2, §3

[17] = system: Salmonella typhimurium NCTC 74; experiment: as above; assay type: cell-based; design: key to Intensity of fluorescence, Salmonella typhimurium NCTC 74 / F: fluorescence (intensity), Salmonella typhimurium NCTC 74 / Intensity of the fluorescence, Salmonella typhimurium NCTC 74: − = no fluorescence detected; +/− = weak fluorescence; + = medium fluorescence; ++ = strong fluorescence; conditions: Table 3; 100 mg/l in Columbia agar, 24 h 37° C., UV 360-365 nm
Protocol: as §1, §2, §3

[18] = system: Morganella morganii 462403 (wild); experiment: as above; assay type: cell-based; design: key to Intensity of fluorescence, Morganella morganii 462403 / F: fluorescence (intensity), Morganella morganii 462403 (wild) / Intensity of the fluorescence, Morganella morganii 462403 (wild): − = no fluorescence detected; +/− = weak fluorescence; + = medium fluorescence; ++ = strong fluorescence; conditions: Table 3; 100 mg/l in Columbia agar, 24 h 37° C., UV 360-365 nm
Protocol: as §1, §2, §3

[19] = system: MRSA NCTC 11939; experiment: as above; assay type: cell-based, Staphylococcus aureus; design: key: − = no fluorescence detected; +/− = weak fluorescence; + = medium fluorescence; ++ = strong fluorescence; conditions: Table 3; 100 mg/l in Columbia agar, 24 h 37° C., UV 360-365 nm
Protocol: as §1, §2, §3

[20] = system: Candida glabrata NCPF 3943; experiment: as above; assay type: cell-based; design: key to Intensity of fluorescence, Candida glabrata NCPF3943 / F: fluorescence (intensity), Candida glabrata NCPF 3943 / Intensity of the fluorescence, Candida glabrata NCPF 3943: − = no fluorescence detected; +/− = weak fluorescence; + = medium fluorescence; ++ = strong fluorescence; conditions: 100 mg/l in Columbia agar, 24 h 37° C.; for F: fluorescence (intensity), Candida glabrata NCPF 3943: Table 3, UV 360-365 nm
Protocol: as §1, §2, §3

SMILES | F: fluorescence (intensity), Bacillus subtilis NCTC 9372 [1] | F: fluorescence (intensity), Burkholderia cepacia 1222 [2] | F: fluorescence (intensity), Candida albicans ATCC 90028 [3] | F: fluorescence (intensity), Citrobacter freundii 46262 (wild) [4] | F: fluorescence (intensity), Enterobacter cloacae NCTC 11936 [5] | F: fluorescence (intensity), Enterococcus faecails NCTC 775 [6] | F: fluorescence (intensity), Enterococcus faecium NCTC 7171 [7] | F: fluorescence (intensity), Escherichia coli NCTC 10418 [8] | F: fluorescence (intensity), Listeria monocyto genes NCTC 11994 [9] | F: fluorescence (intensity), Providencia rettgeri NCTC 7475 [10] | F: fluorescence (intensity), Pseudomonas aeruginosa NCTC 10662 [11] | F: fluorescence (intensity), Serratia marcescens NCTC 10211 [12] | F: fluorescence (intensity), Staphylococcus aureus NCTC 6571 [13] | F: fluorescence (intensity), Staphylococcus epidermidis NCTC 11047 [14] | F: fluorescence (intensity), Streptococcus pyogenes NCTC 8306 [15] | F: fluorescence (intensity), Yersinia enterocolitica NCTC 11176 [16] | F: fluorescence (intensity), Salmonella typhimurium NCTC 74 [17] | F: fluorescence (intensity), Morganella morganii 462403 (wild) [18] | F: fluorescence (intensity), MRSA NCTC 11939 [19] | F: fluorescence (intensity), Candida glabrata NCPF 3943 [20] | also measured
O=[N+]([O-])c1ccccc1-c1nc2ccccc2o1 [Substrate 1] | − | ++ | − | ++ | ++ | ++ | + | ++ | ++ | ++ | ++ | ++ | ++ | + | + | ++ | ++ | ++ | ++ | − | G: growth, Candida glabrata NCPF 3943 [20]: No G
O=[N+]([O-])c1ccc(Cl)cc1-c1nc2ccccc2o1 [Substrate 4, 2-(2′-Nitro-5′-chlorophenyl)benzoxazole] |  |  |  |  |  |  |  |  |  |  |  |  |  |  |  |  |  |  |  |  | melting point: 130 to 132 °C
O=[N+]([O-])c1cc2c(cc1-c1nc3ccccc3o1)OCO2 [Substrate 5] | − | + | − | ++ | ++ | − | − | ++ | + | + | + | ++ | ++ | − | − | − | ++ | ++ | ++ | − | 
